# Experimental data as given in US12240837B2, “Chemokine receptor modulators and uses thereof” (RAPT THERAPEUTICS, INC., priority 2022, dated 2025).
# Target: T1, CCR4 receptor (Homo sapiens, UniProt P51679)
# T1 construct: beta-galactosidase enzyme-fragment tag (receptor modification for beta-arrestin complementation); expressed in transfected cells; host or cells: CHO-K1
# T1 sequence (P51679 1-360): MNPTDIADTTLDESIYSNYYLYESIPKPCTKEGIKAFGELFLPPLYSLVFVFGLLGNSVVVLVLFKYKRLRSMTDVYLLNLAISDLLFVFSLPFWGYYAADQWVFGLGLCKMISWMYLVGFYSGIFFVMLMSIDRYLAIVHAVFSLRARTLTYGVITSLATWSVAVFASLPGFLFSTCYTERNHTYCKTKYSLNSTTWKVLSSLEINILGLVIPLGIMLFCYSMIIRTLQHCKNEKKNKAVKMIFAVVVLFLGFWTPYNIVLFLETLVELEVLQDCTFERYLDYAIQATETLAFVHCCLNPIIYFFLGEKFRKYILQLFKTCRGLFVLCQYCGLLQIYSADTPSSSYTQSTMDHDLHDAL
# Assay: CCR4 antagonist activity in beta-arrestin cellular assay (PathHunter chemiluminescence)
# Format: cell-based
# Conditions: CHO-K1 cells expressing CCR4; 30 min pre-incubation; CCL22 challenge at EC80 (15 nM) for 90 minutes; read-out: Potency (CCR4 antagonist IC50 in the β-arrestin assay)
# Experimental: CCR4 Antagonistic Activity was assessed in Beta-Arrestin Cellular Assay. Compounds were assessed in CHO-K1 cells expressing the CCR4 receptor modified to enable β-glactosidase detection of p-arrestin agonist activity stimulated by CCL22 in a chemiluminescence assay. Cells were seeded in a total volume of 20 μL into white walled, 384-well microplates and incubated at 37° C. prior to testing. Cells were pre-incubated with test compound for 30 min at 37° C. followed by agonist challenge with CCL22 at the EC80 concentration (15 nM) for 90 minutes. Assay signal was generated through a single addition of 12.5 or 15 μL (50% v/v) of PathHunter Detection reagent cocktail, followed by a one hour incubation at room temperature. Microplates were read following signal generation with a PerkinElmer Envision™ instrument for chemiluminescent signal detection. Antagonist activity was analyzed using CBIS data analysis suite (ChemInnovation, CA). Antagonist activity was characterized as percentage inhibition calculated using the following formula: % Inhibition=100%×(1−(mean RLU of test sample−mean RLU of vehicle control)/(mean RLU of EC80 control−mean RLU of vehicle control)).
# An IC50 of >500 nM is designated as Potency C, an IC50 of between 500 nM and 200 nM is designated as Potency B and an IC50 of <200 nM is designated as Potency A.
row,IC50 [nM],Compound
1,< 200,"C[C@@H](Nc1nc(N2CCC(C3CCCN(C4CC(C(=O)O)C4)C3)CC2)ncc1Cl)c1ccc(Cl)cc1Cl (stereo partly drawn) [Example 12, 3-(1′-(5-chloro-4-(((R)-1-(2,4-dichlorophenyl)ethyl)amino)pyrimidin-2-yl)-[3,4′-bipiperidin]-1-yl)cyclobutane-1-carboxylic Acid]"
2,200 to 500,"C[C@@H](Nc1nc(N2CCC(C3CCN(C4CC(C)(C(=O)O)C4)C3)C2)ncc1Cl)c1ccc(Cl)cc1Cl (stereo partly drawn) [Example 7, 3-(1′-(5-chloro-4-(((R)-1-(2,4-dichlorophenyl)ethyl)amino)pyrimidin-2-yl)-[3,3′-bipyrrolidin]-1-yl)-1-methylcyclobutane-1-carboxylic Acid]"
3,200 to 500,"Cc1nc(N2CCC(C3CCCCN3C3CC(C)(C(=O)O)C3)C2)nc(N[C@H](C)c2ccc(Cl)cc2Cl)c1Cl (stereo partly drawn) [Example 11, 3-(2-(1-(5-chloro-4-(((R)-1-(2,4-dichlorophenyl)ethyl)amino)-6-methylpyrimidin-2-yl)pyrrolidin-3-yl)piperidin-1-yl)-1-methylcyclobutane-1-carboxylic Acid]"
4,> 500,"Cc1nc(N2CCC(C3CN(C4CC(C)(C(=O)O)C4)C3)C2)nc(N[C@H](C)c2ccc(Cl)cc2Cl)c1Cl (mixture of isomers) [Example 3, 3-(3-(1-(5-chloro-4-(((R)-1-(2,4-dichlorophenyl)ethyl)amino)-6-methylpyrimidin-2-yl)pyrrolidin-3-yl)azetidin-1-yl)-1-methylcyclobutane-1-carboxylic Acid]"
5,< 200,"C[C@@H](Nc1nc(N2CCC(C3CCCCN3)C2)ncc1Cl)c1ccc(Cl)cc1Cl (mixture of isomers) [Example 8, 5-chloro-N—((R)-1-(2,4-dichlorophenyl)ethyl)-2-(3-(piperidin-2-yl)pyrrolidin-1-yl)pyrimidin-4-amine]"
6,< 200,"Cc1nc(N2CCC(C3CCCN(CCC(=O)O)C3)CC2)nc(N[C@H](C)c2ccc(Cl)cc2Cl)c1Cl (stereo partly drawn) [Example 17, 3-(1′-(5-chloro-4-(((R)-1-(2,4-dichlorophenyl)ethyl)amino)-6-methylpyrimidin-2-yl)-[3,4′-bipiperidin]-1-yl)propanoic Acid]"
7,200 to 500,"Cc1nc(N2CCC(C3CCCCN3)C2)nc(N[C@H](C)c2ccc(Cl)cc2Cl)c1Cl (mixture of isomers) [Example 10, 5-chloro-N—((R)-1-(2,4-dichlorophenyl)ethyl)-6-methyl-2-(3-(piperidin-2-yl)pyrrolidin-1-yl)pyrimidin-4-amine]"
8,< 200,"Cc1nc(N2CCC(C3CCCN(C4CC(C)(C(=O)O)C4)C3)C2)nc(N[C@H](C)c2ccc(Cl)cc2Cl)c1Cl (stereo partly drawn) [Example 1, 3-(3-(1-(5-chloro-4-(((R)-1-(2,4-dichlorophenyl)ethyl)amino)-6-methylpyrimidin-2-yl)pyrrolidin-3-yl)piperidin-1-yl)-1-methylcyclobutane-1-carboxylic Acid]"
9,< 200,"C[C@@H](Nc1nc(N2CCC(C3CCCN(C4CC(C)(C(=O)O)C4)C3)CC2)ncc1Cl)c1ccc(Cl)cc1Cl (mixture of isomers) [Example 6, 3-(1′-(5-chloro-4-(((R)-1-(2,4-dichlorophenyl)ethyl)amino)pyrimidin-2-yl)-[3,4′-bipiperidin]-1-yl)-1-methylcyclobutane-1-carboxylic Acid]"
10,< 200,"C[C@@H](Nc1nc(N2CCC(C3CCCN(C4CC(C)(C(=O)O)C4)C3)C2)ncc1Cl)c1ccc(Cl)cc1Cl (stereo partly drawn) [Example 5, 3-(3-(1-(5-chloro-4-(((R)-1-(2,4-dichlorophenyl)ethyl)amino)pyrimidin-2-yl)pyrrolidin-3-yl)piperidin-1-yl)-1-methylcyclobutane-1-carboxylic Acid]"
11,< 200,"Cc1nc(N2CCC(C3CCCN(C4CC(C)(C(=O)O)C4)C3)CC2)nc(N[C@H](C)c2ccc(Cl)cc2Cl)c1Cl (stereo partly drawn) [Example 2, 3-(1′-(5-chloro-4-(((R)-1-(2,4-dichlorophenyl)ethyl)amino)-6-methylpyrimidin-2-yl)-[3,4′-bipiperidin]-1-yl)-1-methylcyclobutane-1-carboxylic Acid]"
12,< 200,"C[C@@H](Nc1nc(N2CCC(C3CCCN(CCC(=O)O)C3)CC2)ncc1Cl)c1ccc(Cl)cc1Cl (stereo partly drawn) [Example 16, 3-(1′-(5-chloro-4-(((R)-1-(2,4-dichlorophenyl)ethyl)amino)pyrimidin-2-yl)-[3,4′-bipiperidin]-1-yl)propanoic Acid]"
13,< 200,"Cc1nc(N2CCC(C3CCCN(C(C)C(=O)O)C3)CC2)nc(N[C@H](C)c2ccc(Cl)cc2Cl)c1Cl (stereo partly drawn) [Example 14, 2-(1′-(5-chloro-4-(((R)-1-(2,4-dichlorophenyl)ethyl)amino)-6-methylpyrimidin-2-yl)-[3,4′-bipiperidin]-1-yl)propanoic Acid]"
14,200 to 500,"Cc1nc(N2CCC(C3CCN(C4CC(C)(C(=O)O)C4)C3)C2)nc(N[C@H](C)c2ccc(Cl)cc2Cl)c1Cl (stereo partly drawn) [Example 4, 3-(1′-(5-chloro-4-(((R)-1-(2,4-dichlorophenyl)ethyl)amino)-6-methylpyrimidin-2-yl)-[3,3′-bipyrrolidin]-1-yl)-1-methylcyclobutane-1-carboxylic Acid]"
15,< 200,"C[C@@H](Nc1nc(N2CCC(C3CCCCN3C3CC(C)(C(=O)O)C3)C2)ncc1Cl)c1ccc(Cl)cc1Cl (stereo partly drawn) [Example 9, 3-(2-(1-(5-chloro-4-(((R)-1-(2,4-dichlorophenyl)ethyl)amino)pyrimidin-2-yl)pyrrolidin-3-yl)piperidin-1-yl)-1-methylcyclobutane-1-carboxylic Acid]"
16,< 200,"Cc1nc(N2CCC(C3CCCN(C4CC(C(=O)O)C4)C3)CC2)nc(N[C@H](C)c2ccc(Cl)cc2Cl)c1Cl (stereo partly drawn) [Example 13, 3-(1′-(5-chloro-4-(((R)-1-(2,4-dichlorophenyl)ethyl)amino)-6-methylpyrimidin-2-yl)-[3,4′-bipiperidin]-1-yl)cyclobutane-1-carboxylic Acid]"
17,< 200,"CC(C(=O)O)N1CCCC(C2CCN(c3ncc(Cl)c(N[C@H](C)c4ccc(Cl)cc4Cl)n3)CC2)C1 (stereo partly drawn) [Example 15, 2-(1′-(5-chloro-4-(((R)-1-(2,4-dichlorophenyl)ethyl)amino)pyrimidin-2-yl)-[3,4′-bipiperidin]-1-yl)propanoic Acid]"
